PMC12225012, “Identification and Application of a Novel Patulin Degrading Enzyme From Meyerozyma guilliermondii” (Advanced Science, 2025)

Biological target: T1, MgSDR1 (Meyerozyma guilliermondii, UniProt A5DPG9)
T1 construct: gene PGUG_05170; pET-30a(+) BamHI/XhoI, N-terminal 6xHis tag, E. coli Rosetta (DE3), imidazole-eluted, approx. 40 kDa with tag; catalytic triad Ser174-Tyr188-Lys192; GXXXGXG and YXXXK motifs
Experiment: degradation kinetics (details in supplement)
Type: biochemical
Conditions: co-substrate NADPH; pH and temperature of the kinetic assay not given in the main text

T1 sequence (A5DPG9 entry or part of it): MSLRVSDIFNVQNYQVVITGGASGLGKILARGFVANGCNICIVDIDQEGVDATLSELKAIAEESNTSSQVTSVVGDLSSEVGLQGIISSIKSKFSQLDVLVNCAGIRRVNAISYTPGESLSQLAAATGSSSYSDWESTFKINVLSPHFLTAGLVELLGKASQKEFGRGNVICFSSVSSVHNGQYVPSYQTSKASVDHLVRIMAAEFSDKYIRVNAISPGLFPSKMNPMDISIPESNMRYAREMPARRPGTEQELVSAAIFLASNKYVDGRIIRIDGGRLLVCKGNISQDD

Q: For `O=C1C=C2C(=CCOC2O)O1` (stereo not shown) [PAT], which Km is on record?
A: 1420 µM
